Entries after “also recorded” stand apart in the source; their conditions may differ.
Tested on: JFH1-based recombinants of genotypes 1a, 1b, 2a, 2b, and 6a
Type: cell-based, hepatitis C virus

Q: With `NC12CC3CC(CC(C3)C1)C2` [amantadine] as the compound, how does the “effect on number of infected cells and supernatant HCV RNA titers” value read?
A: The value was “no apparent effect; also recorded: did not decrease the number of infected cells or supernatant HCV RNA titers”.

Q: `NC(=O)c1ncn([C@@H]2O[C@H](CO)[C@@H](O)[C@H]2O)n1` [ribavirin] was tested. Which “effect on number of infected cells and supernatant HCV RNA titers” value did it give?
A: Its value is “no apparent effect; also recorded: did not decrease the number of infected cells or supernatant HCV RNA titers”.

— patent publication US8663653B2, “Efficient cell culture system for hepatitis C virus genotype 2B” (priority 2008, dated 2014)
